Measured values from ChEMBL document CHEMBL5465560, “Selectivity Literature for EUbOPEN Chemogenomic Library” (2024).
Each block holds one compound with its values, some of them ahead of it.

Key:
[1] = target: Mitogen-activated protein kinase 9 (Homo sapiens, UniProt P45984); experiment: Selectivity interaction (Enzymatic assay) EUB0001199aCl MAPK9
[2] = target: T1, Ephrin type-A receptor 3 (Homo sapiens) (UniProt P29320); experiment: Selectivity interaction (Kinase panel (Invitrogen)) EUB0000639a EPHA3; conditions: at 200 nM
T1 sequence (whole entry): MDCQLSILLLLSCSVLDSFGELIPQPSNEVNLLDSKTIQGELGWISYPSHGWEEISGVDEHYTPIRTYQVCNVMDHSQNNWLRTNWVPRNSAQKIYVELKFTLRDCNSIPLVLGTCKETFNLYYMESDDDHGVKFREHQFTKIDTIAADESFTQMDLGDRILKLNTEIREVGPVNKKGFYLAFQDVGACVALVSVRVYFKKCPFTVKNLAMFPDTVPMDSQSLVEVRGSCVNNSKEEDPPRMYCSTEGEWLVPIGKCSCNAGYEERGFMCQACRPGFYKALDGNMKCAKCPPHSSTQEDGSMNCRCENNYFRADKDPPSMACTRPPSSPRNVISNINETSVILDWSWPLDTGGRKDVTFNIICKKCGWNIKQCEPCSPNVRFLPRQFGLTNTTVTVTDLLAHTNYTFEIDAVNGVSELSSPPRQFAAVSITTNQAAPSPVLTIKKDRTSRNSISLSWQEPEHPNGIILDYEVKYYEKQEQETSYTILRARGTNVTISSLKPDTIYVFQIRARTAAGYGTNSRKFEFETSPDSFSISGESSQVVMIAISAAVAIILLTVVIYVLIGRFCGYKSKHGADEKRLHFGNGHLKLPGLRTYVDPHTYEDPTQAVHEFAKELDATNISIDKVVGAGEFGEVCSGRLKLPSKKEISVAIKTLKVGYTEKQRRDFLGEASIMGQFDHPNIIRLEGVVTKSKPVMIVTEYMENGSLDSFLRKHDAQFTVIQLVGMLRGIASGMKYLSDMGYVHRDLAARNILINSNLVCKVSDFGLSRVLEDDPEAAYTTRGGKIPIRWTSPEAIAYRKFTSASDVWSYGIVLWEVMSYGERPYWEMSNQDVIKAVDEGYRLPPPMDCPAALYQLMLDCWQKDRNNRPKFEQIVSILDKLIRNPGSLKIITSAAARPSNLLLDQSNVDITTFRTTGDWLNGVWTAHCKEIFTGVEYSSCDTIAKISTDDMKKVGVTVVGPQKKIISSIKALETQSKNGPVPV

[3] = target: T2, Serine/threonine-protein kinase LATS1 (Homo sapiens) (UniProt O95835); experiment: Selectivity interaction (ActivX KiNativ screen (kinase selectivity in THP-1 cell lysates)) EUB0000639a LATS1; type: subcellular; conditions: lysate, at 0.04 µM
T2 sequence (whole entry): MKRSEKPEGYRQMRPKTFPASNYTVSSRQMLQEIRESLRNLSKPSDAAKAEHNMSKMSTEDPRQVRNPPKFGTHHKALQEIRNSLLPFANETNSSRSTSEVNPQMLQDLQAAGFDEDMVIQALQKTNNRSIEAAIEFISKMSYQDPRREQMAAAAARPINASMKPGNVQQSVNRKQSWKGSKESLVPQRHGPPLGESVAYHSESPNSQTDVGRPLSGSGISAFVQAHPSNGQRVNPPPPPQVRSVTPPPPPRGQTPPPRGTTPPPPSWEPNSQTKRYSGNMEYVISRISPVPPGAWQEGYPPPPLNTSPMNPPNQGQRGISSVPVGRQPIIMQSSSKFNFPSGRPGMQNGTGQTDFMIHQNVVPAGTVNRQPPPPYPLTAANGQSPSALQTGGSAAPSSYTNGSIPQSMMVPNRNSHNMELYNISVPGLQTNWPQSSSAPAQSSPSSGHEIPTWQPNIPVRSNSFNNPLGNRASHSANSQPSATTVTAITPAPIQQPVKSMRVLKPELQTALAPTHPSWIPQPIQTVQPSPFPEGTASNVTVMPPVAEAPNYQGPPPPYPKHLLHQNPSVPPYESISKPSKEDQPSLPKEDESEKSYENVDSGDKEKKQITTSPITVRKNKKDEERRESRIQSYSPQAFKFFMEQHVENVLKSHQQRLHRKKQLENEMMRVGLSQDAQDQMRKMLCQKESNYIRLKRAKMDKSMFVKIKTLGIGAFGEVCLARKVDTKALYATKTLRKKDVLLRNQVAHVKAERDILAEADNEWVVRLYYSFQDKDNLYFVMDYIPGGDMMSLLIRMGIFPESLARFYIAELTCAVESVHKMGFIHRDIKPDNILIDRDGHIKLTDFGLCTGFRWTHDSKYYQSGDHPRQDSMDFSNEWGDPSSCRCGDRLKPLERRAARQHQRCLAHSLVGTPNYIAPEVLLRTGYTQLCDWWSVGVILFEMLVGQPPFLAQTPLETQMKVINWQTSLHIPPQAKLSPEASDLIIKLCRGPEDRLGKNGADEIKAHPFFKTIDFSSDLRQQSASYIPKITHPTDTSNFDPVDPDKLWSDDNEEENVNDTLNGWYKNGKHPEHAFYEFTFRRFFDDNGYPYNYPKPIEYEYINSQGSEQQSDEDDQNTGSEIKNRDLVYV

[4] = system: Tyrosine-protein kinase ABL1 (Homo sapiens), P00519 [F317I]; experiment: Selectivity interaction (Ambit KINOMEscan and KiNATiv profiling in Jurkat cells) EUB0000090b ABL1; type: cell-based; conditions: at 1 µM
Sequence of Tyrosine-protein kinase ABL1 (Homo sapiens), P00519 [F317I] (P00519 whole entry F317I): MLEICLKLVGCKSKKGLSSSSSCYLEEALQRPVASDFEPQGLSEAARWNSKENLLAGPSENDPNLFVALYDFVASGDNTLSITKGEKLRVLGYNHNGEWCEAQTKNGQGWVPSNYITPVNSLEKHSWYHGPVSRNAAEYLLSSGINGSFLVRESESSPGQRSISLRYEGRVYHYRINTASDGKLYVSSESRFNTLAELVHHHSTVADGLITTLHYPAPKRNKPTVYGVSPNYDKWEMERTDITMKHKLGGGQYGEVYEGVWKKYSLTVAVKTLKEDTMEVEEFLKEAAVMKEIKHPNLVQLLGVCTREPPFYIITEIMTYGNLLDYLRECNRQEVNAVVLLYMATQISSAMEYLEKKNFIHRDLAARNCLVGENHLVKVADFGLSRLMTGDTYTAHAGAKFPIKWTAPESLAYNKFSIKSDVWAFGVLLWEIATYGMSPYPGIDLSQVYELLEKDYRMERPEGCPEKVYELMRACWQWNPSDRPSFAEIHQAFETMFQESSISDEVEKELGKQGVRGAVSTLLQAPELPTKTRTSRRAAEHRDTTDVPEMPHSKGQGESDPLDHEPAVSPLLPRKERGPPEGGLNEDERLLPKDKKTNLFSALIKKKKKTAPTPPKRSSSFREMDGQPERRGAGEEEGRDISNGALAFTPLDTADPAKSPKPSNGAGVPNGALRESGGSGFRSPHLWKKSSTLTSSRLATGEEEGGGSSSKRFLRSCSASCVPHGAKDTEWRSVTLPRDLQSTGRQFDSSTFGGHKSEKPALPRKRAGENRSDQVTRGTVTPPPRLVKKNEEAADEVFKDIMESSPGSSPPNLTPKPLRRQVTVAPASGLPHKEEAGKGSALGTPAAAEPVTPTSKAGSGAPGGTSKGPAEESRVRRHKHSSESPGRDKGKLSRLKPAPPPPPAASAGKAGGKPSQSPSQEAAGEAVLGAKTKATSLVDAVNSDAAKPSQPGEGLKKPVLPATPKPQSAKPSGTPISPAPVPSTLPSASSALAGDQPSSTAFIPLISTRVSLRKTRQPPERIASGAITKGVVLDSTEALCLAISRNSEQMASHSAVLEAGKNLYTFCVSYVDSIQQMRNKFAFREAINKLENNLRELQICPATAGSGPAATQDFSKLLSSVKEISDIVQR

Sequence of Mitogen-activated protein kinase 9 (P45984 whole entry): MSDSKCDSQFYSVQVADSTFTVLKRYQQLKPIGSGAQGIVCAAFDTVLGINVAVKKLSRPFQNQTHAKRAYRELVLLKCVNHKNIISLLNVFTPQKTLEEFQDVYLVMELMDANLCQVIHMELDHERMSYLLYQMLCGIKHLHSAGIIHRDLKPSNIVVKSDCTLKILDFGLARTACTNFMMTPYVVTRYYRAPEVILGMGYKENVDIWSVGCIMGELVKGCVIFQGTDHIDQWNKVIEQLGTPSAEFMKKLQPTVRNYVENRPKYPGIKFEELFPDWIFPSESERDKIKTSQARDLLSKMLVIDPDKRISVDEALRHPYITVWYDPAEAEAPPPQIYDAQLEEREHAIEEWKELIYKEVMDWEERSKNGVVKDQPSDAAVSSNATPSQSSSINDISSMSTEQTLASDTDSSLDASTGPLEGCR

- IC50 [1]: 4.95 µM
SMILES: CN1Cc2nccc(-c3cn(C)nc3-c3ccc(F)cc3)c2C1=O

- % of inhibition [2]: 0.984%
- % of inhibition [3]: -18.5%
SMILES: CC[C@@H]1[C@H](F)C(=O)N[C@@H]1COc1nccc2cc(C(N)=O)c(OC)cc12 [ZIMLOVISERTIB]

SMILES: CN(C)C/C=C/C(=O)Nc1ccc(C(=O)N2CCCC(Nc3ncc(Cl)c(-c4c[nH]c5ccccc45)n3)C2)cc1 (centres undefined)
- % of control [4]: 100%
